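Compound exposure: 48 hours, 5 concentrations, 96-well plates. The concentration for full growth arrest is given as TGI.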
What was measured:
Test in all cases: NCI-60 cell line screen, 48 h
MCF7 breast = tested on: MCF7 breast
A498 renal = tested on: A498 renal
SF-268 CNS = tested on: SF-268 CNS
786-0 renal = tested on: 786-0 renal
SNB-19 CNS = tested on: SNB-19 CNS
ACHN renal = tested on: ACHN renal
IGROV1 ovarian = tested on: IGROV1 ovarian
UO-31 renal = tested on: UO-31 renal
MOLT-4 leukemia = tested on: MOLT-4 leukemia
HL-60(TB) leukemia = tested on: HL-60(TB) leukemia
EKVX NSCLC = tested on: EKVX NSCLC
OVCAR-4 ovarian = tested on: OVCAR-4 ovarian
HT29 colon = tested on: HT29 colon
MALME-3M melanoma = tested on: MALME-3M melanoma
SK-MEL-28 melanoma = tested on: SK-MEL-28 melanoma
NCI/ADR-RES ovarian = tested on: NCI/ADR-RES ovarian
U251 CNS = tested on: U251 CNS
SF-295 CNS = tested on: SF-295 CNS
KM12 colon = tested on: KM12 colon
NCI-H460 lung = tested on: NCI-H460 lung
MDA-MB-231 breast = tested on: MDA-MB-231 breast
TK-10 renal = tested on: TK-10 renal
SNB-75 CNS = tested on: SNB-75 CNS
HOP-62 NSCLC = tested on: HOP-62 NSCLC
MDA-N = tested on: MDA-N
SN12C renal = tested on: SN12C renal
SK-MEL-2 melanoma = tested on: SK-MEL-2 melanoma
T-47D breast = tested on: T-47D breast
HCT-15 colon = tested on: HCT-15 colon
DU-145 prostate = tested on: DU-145 prostate
NCI-H226 lung = tested on: NCI-H226 lung
COLO 205 colon = tested on: COLO 205 colon
HCC-2998 colon = tested on: HCC-2998 colon
NCI-H23 lung = tested on: NCI-H23 lung
SF-539 CNS = tested on: SF-539 CNS
CAKI-1 renal = tested on: CAKI-1 renal
CCRF-CEM leukemia = tested on: CCRF-CEM leukemia
OVCAR-3 ovarian = tested on: OVCAR-3 ovarian
OVCAR-5 ovarian = tested on: OVCAR-5 ovarian
SR leukemia = tested on: SR leukemia
UACC-62 melanoma = tested on: UACC-62 melanoma
MDA-MB-435 = tested on: MDA-MB-435
SK-MEL-5 melanoma = tested on: SK-MEL-5 melanoma
UACC-257 melanoma = tested on: UACC-257 melanoma
LOX IMVI melanoma = tested on: LOX IMVI melanoma
M14 melanoma = tested on: M14 melanoma
HCT-116 colon = tested on: HCT-116 colon
BT-549 breast = tested on: BT-549 breast
OVCAR-8 ovarian = tested on: OVCAR-8 ovarian
HS 578T breast = tested on: HS 578T breast
PC-3 prostate = tested on: PC-3 prostate
HOP-92 NSCLC = tested on: HOP-92 NSCLC
A549 NSCLC = tested on: A549 NSCLC
SW-620 colon = tested on: SW-620 colon
SK-OV-3 ovarian = tested on: SK-OV-3 ovarian
RXF 393 renal = tested on: RXF 393 renal
K-562 leukemia = tested on: K-562 leukemia
RPMI-8226 leukemia = tested on: RPMI-8226 leukemia

Work on `CCOc1ccc(N=NC2C(=O)N(C(=O)CC(=O)Nc3ccc(C)cc3)N=C2C)cc1` (stereo not drawn) yielded a TGI (MCF7 breast) of over 100 µM, a TGI (A498 renal) of 52.5 µM and a TGI (SF-268 CNS) of 75.2 µM. For the same molecule, the TGI (786-0 renal) was 29.5 µM, the TGI (SNB-19 CNS) was 51 µM and the TGI (ACHN renal) was over 100 µM. It also gave a TGI (IGROV1 ovarian) of over 100 µM, a TGI (UO-31 renal) of 78.7 µM and a TGI (MOLT-4 leukemia) of over 100 µM. The TGI (HL-60(TB) leukemia) was over 100 µM, the TGI (EKVX NSCLC) was 40.9 µM and the TGI (OVCAR-4 ovarian) was 95.7 µM. The TGI (HT29 colon) was over 100 µM, the TGI (MALME-3M melanoma) was over 100 µM and the TGI (SK-MEL-28 melanoma) was over 100 µM. For the same molecule, the TGI (NCI/ADR-RES ovarian) was 79.2 µM, the TGI (U251 CNS) was 32.2 µM and the TGI (SF-295 CNS) was 49.4 µM. It also gave a TGI (KM12 colon) of over 100 µM, a TGI (NCI-H460 lung) of 43.8 µM and a TGI (MDA-MB-231 breast) of 35.8 µM. It also gave a TGI (TK-10 renal) of 93.2 µM, a TGI (SNB-75 CNS) of 23.2 µM and a TGI (HOP-62 NSCLC) of 34.3 µM. It also gave a TGI (MDA-N) of 13.9 µM, a TGI (SN12C renal) of over 100 µM and a TGI (SK-MEL-2 melanoma) of over 100 µM. It also gave a TGI (T-47D breast) of over 100 µM, a TGI (HCT-15 colon) of over 100 µM and a TGI (DU-145 prostate) of over 100 µM. It also gave a TGI (NCI-H226 lung) of 88.4 µM, a TGI (COLO 205 colon) of over 100 µM and a TGI (HCC-2998 colon) of over 100 µM. It also gave a TGI (NCI-H23 lung) of over 100 µM, a TGI (SF-539 CNS) of 36.5 µM and a TGI (CAKI-1 renal) of over 100 µM. The TGI (CCRF-CEM leukemia) was over 100 µM, the TGI (OVCAR-3 ovarian) was over 100 µM and the TGI (OVCAR-5 ovarian) was over 100 µM. The TGI (SR leukemia) was over 100 µM, the TGI (UACC-62 melanoma) was 52.6 µM and the TGI (MDA-MB-435) was 10.9 µM. It also gave a TGI (SK-MEL-5 melanoma) of over 100 µM, a TGI (UACC-257 melanoma) of over 100 µM and a TGI (LOX IMVI melanoma) of 27.7 µM. The TGI (M14 melanoma) was over 100 µM, the TGI (HCT-116 colon) was 25.8 µM and the TGI (BT-549 breast) was over 100 µM. It also gave a TGI (OVCAR-8 ovarian) of 31.2 µM, a TGI (HS 578T breast) of 40.1 µM and a TGI (PC-3 prostate) of over 100 µM. It also gave a TGI (HOP-92 NSCLC) of 39.9 µM, a TGI (A549 NSCLC) of over 100 µM and a TGI (SW-620 colon) of over 100 µM.
Molecule `CC1C2C=CC1C(c1c3ccc(=O)c(O)c-3oc3c(O)c(O)ccc13)C2C(=O)O` (stereo not drawn) has a TGI (MCF7 breast) of 40.8 µM, a TGI (A498 renal) of over 100 µM and a TGI (SF-268 CNS) of over 100 µM. For the same molecule, the TGI (786-0 renal) was over 100 µM, the TGI (SK-OV-3 ovarian) was over 100 µM and the TGI (SNB-19 CNS) was over 100 µM. For the same molecule, the TGI (ACHN renal) was over 100 µM, the TGI (IGROV1 ovarian) was over 100 µM and the TGI (UO-31 renal) was over 100 µM. It also gave a TGI (MOLT-4 leukemia) of 56.4 µM, a TGI (HL-60(TB) leukemia) of over 100 µM and a TGI (EKVX NSCLC) of over 100 µM. For the same molecule, the TGI (OVCAR-4 ovarian) was over 100 µM, the TGI (HT29 colon) was over 100 µM and the TGI (SK-MEL-28 melanoma) was over 100 µM. The TGI (NCI/ADR-RES ovarian) was over 100 µM, the TGI (U251 CNS) was over 100 µM and the TGI (SF-295 CNS) was over 100 µM. It also gave a TGI (KM12 colon) of over 100 µM, a TGI (NCI-H460 lung) of over 100 µM and a TGI (MDA-MB-231 breast) of over 100 µM. The TGI (TK-10 renal) was over 100 µM, the TGI (HOP-62 NSCLC) was over 100 µM and the TGI (MDA-N) was 45.9 µM. For the same molecule, the TGI (SN12C renal) was 51.1 µM, the TGI (SK-MEL-2 melanoma) was over 100 µM and the TGI (RXF 393 renal) was over 100 µM. The TGI (T-47D breast) was over 100 µM, the TGI (HCT-15 colon) was over 100 µM and the TGI (DU-145 prostate) was over 100 µM. For the same molecule, the TGI (NCI-H226 lung) was 86.5 µM, the TGI (COLO 205 colon) was over 100 µM and the TGI (K-562 leukemia) was 45.8 µM. The TGI (HCC-2998 colon) was over 100 µM, the TGI (NCI-H23 lung) was over 100 µM and the TGI (CAKI-1 renal) was over 100 µM. It also gave a TGI (CCRF-CEM leukemia) of 7.38 µM, a TGI (OVCAR-3 ovarian) of over 100 µM and a TGI (OVCAR-5 ovarian) of over 100 µM. It also gave a TGI (SR leukemia) of over 100 µM, a TGI (RPMI-8226 leukemia) of 59.5 µM and a TGI (UACC-62 melanoma) of over 100 µM. It also gave a TGI (MDA-MB-435) of 36.2 µM, a TGI (SK-MEL-5 melanoma) of over 100 µM and a TGI (UACC-257 melanoma) of over 100 µM. For the same molecule, the TGI (LOX IMVI melanoma) was 49.1 µM, the TGI (M14 melanoma) was over 100 µM and the TGI (HCT-116 colon) was 69.7 µM. For the same molecule, the TGI (BT-549 breast) was over 100 µM, the TGI (OVCAR-8 ovarian) was over 100 µM and the TGI (HS 578T breast) was over 100 µM. The TGI (PC-3 prostate) was over 100 µM, the TGI (HOP-92 NSCLC) was over 100 µM and the TGI (A549 NSCLC) was over 100 µM. The TGI (SW-620 colon) was over 100 µM.
Molecule `O=C1/C(=C/c2cccc([N+](=O)[O-])c2)N=C(c2ccccc2)N1c1nc2c(Cl)cc(Cl)cc2s1` has a TGI (MCF7 breast) of 93.8 µM, a TGI (A498 renal) of 57.8 µM and a TGI (SF-268 CNS) of 78.1 µM. The TGI (786-0 renal) was over 100 µM, the TGI (SK-OV-3 ovarian) was 85.7 µM and the TGI (SNB-19 CNS) was 65.4 µM. For the same molecule, the TGI (ACHN renal) was 74.2 µM, the TGI (IGROV1 ovarian) was 58.2 µM and the TGI (UO-31 renal) was 49.6 µM. For the same molecule, the TGI (MOLT-4 leukemia) was 71.8 µM, the TGI (HL-60(TB) leukemia) was 60.9 µM and the TGI (EKVX NSCLC) was 53.3 µM. The TGI (OVCAR-4 ovarian) was 71.8 µM, the TGI (HT29 colon) was 40 µM and the TGI (SK-MEL-28 melanoma) was over 100 µM. The TGI (NCI/ADR-RES ovarian) was 85.4 µM, the TGI (U251 CNS) was 37.2 µM and the TGI (SF-295 CNS) was over 100 µM. For the same molecule, the TGI (KM12 colon) was 45 µM, the TGI (NCI-H460 lung) was over 100 µM and the TGI (MDA-MB-231 breast) was over 100 µM. For the same molecule, the TGI (TK-10 renal) was over 100 µM, the TGI (HOP-62 NSCLC) was 45 µM and the TGI (MDA-N) was 39.2 µM. It also gave a TGI (SN12C renal) of 54.7 µM, a TGI (SK-MEL-2 melanoma) of 48 µM and a TGI (RXF 393 renal) of 55 µM. For the same molecule, the TGI (T-47D breast) was 68.9 µM, the TGI (HCT-15 colon) was over 100 µM and the TGI (DU-145 prostate) was 70.1 µM. It also gave a TGI (COLO 205 colon) of over 100 µM, a TGI (K-562 leukemia) of over 100 µM and a TGI (HCC-2998 colon) of 61.9 µM. For the same molecule, the TGI (SF-539 CNS) was 48.1 µM, the TGI (CAKI-1 renal) was over 100 µM and the TGI (CCRF-CEM leukemia) was 23.5 µM. For the same molecule, the TGI (OVCAR-3 ovarian) was 39.1 µM, the TGI (OVCAR-5 ovarian) was 87.9 µM and the TGI (SR leukemia) was 57.9 µM. For the same molecule, the TGI (RPMI-8226 leukemia) was over 100 µM, the TGI (UACC-62 melanoma) was over 100 µM and the TGI (MDA-MB-435) was 46 µM. For the same molecule, the TGI (SK-MEL-5 melanoma) was 33.5 µM, the TGI (UACC-257 melanoma) was over 100 µM and the TGI (LOX IMVI melanoma) was 32.7 µM. For the same molecule, the TGI (M14 melanoma) was 46.8 µM, the TGI (HCT-116 colon) was 37.4 µM and the TGI (BT-549 breast) was 94.6 µM. The TGI (OVCAR-8 ovarian) was 49.5 µM, the TGI (HS 578T breast) was 73.6 µM and the TGI (PC-3 prostate) was 64.4 µM. The TGI (HOP-92 NSCLC) was 77.9 µM, the TGI (A549 NSCLC) was 52.2 µM and the TGI (SW-620 colon) was 73.1 µM.
